In US20070207957A1, “Composition For Accelerating Alcohol Metabolism Or Relieving Fatigue By Gluconeogenesis” (Kirin Beer Kabushiki Kaisha, priority 2004, published 2007):
Read-outs that look alike come from different tables or passages of the source.

Experiments:
[1] = Ethanol metabolism in human (ND), sample intake before ethanol: blood levels; format: in vivo; conditions: for blood ethanol level: human ALDH2*1/2 (ND), 3 mg/kg caffeine and/or 30 mg/kg serine orally 1 h before 0.4 g/kg ethanol, 30-180 minutes, vs control; for blood acetaldehyde level: human ND, 3 mg/kg caffeine and/or 30 mg/kg serine 1 h before 0.4 g/kg ethanol
Description: The subjects were asked to have no food and water from wake-up time to participate in the test. A control test was performed by 8 persons (as volunteers). Of the 8 persons participated in the control test, 5 persons were chosen to perform a sample administration test. […] . One hour after the sample intake, 5% ethanol solution (white liquor diluted with water) was divided into 6 portions and orally taken 6 times at the intervals of 4 minutes so as to take 0.4 g ethanol per a body weight (kg). Blood was taken immediately before alcohol drinking, 30, 60, 90, 120, and 180 minutes after alcohol drinking. Immediately upon taking blood, blood was mixed with a solution containing 0.6N perchlorate and 0.9% NaCl, and centrifugally separated at 3000 rpm for 20 minutes to remove protein. The ethanol, acetaldehyde and acetate concentrations of the supernatant were measured by gas chromatography manufactured by Perkin Elmer Corporation or Shimazu Corporation (Eriksson C J P et al., Anal. Biochem. Vol. 125, 259-263 (1982)). […] Furthermore, using the same plasma, blood lactate and pyruvate levels were measured by use of determiner LA (Kyowa Medics, Tokyo, Japan) and determiner PA (Kyowa Medics), respectively. Based on the ratio of lactate/pyruvate, the ratio of NADH/NAD^+ was calculated. On the other hand, at the same time of taking blood, 9-rank subjective evaluation was performed by the subjects with respect to “feeling of drunk” (by scores 0 to 8) and comfortable feeling (uncomfortable (score −4) to comfortable (score 4)).

[2] = mice; Kakuda T et al. 1996; cited from earlier work
[3] = Blood ethanol level in rats, caffeine+serine administered before ethanol; format: in vivo, Wistar rats; conditions: 20 mg/kg caffeine and/or 0.1 g/kg serine orally 1 h before ethanol 2 g/kg, blood 1, 2, 3 and 5 hours, vs water control
Description: Four groups were prepared in total as follow. A control group of rats (n=6) was prepared by orally administering water. […] . […] Blood was taken from the cervical vein 1, 2, 3 and 5 hours after the administration. Immediately upon taking, the blood was mixed well with a solution containing 0.6N perchlorate and 0.9% NaCl, and centrifugally separated at 3000 rpm for 20 minutes to remove protein. The ethanol concentration of the supernatant was measured with a gas chromatograph manufactured by Shimazu Corporation (Eriksson C J P et al., Anal. Biochem. Vol. 125, 259-263 (1982)).

[4] = rats; 20 mg/kg caffeine and/or 0.1 g/kg tryptophan 1 h before ethanol; blood two hours after ethanol
Description: One hour later, ethanol was administered. After further two hours, blood was taken from the aorta abdominalis under anesthesia with pentobarbital (Sigma).

[5] = Recovery from hypoglycemia at the time of fatigue (swimming mice); format: in vivo, Balb/c mice; conditions: exhausted mice; 80 mg/kg caffeine and/or 200 mg/kg serine orally; vs water control
Description: A swimming experiment of male Balb/c mice (Japan SLC) was performed under flowing water by use of a flowing-water vessel (developed by Matsumoto in Kyoto University). The mice (4 weeks old) were allowed to swim once in two different days at a flow rate of about 4.5 L/min (about 16 cm/sec) for 15 to 20 minutes to allow the mice to get use to the swimming environment. On the next week, these mice (5 weeks old) were fasted for 3 hours. After that, blood was taken from the tail and blood glucose level was measured by GLUTESTACE (Sanwa Kagaku Kenkyusho Co., Ltd.). Immediately after this, the mice were allowed to swim at a flow rate of about 5.5 L/min (about 19 cm/sec), in an intermittent manner. Intermittent swim was performed repeating a cycle consisting of 10-minute swim and 10-minute rest, twice, and then repeating a cycle consisting of 5-minute swim and 10-minute rest until the mice became too exhausted to swim. After the mice too exhausted to swim were allowed to leave alone for 15 minutes, the blood glucose level was checked. […]. A blood glucose level was measured with time.

[6] = system: serine dehydratase (SDS); experiment: Liver mRNA expression after caffeine administration (RT-PCR), SDS; conditions: rats, 100 mg/kg caffeine orally, two hours, corrected on housekeeping gene P0
[7] = Blood glucose level in rats after caffeine administration; conditions: 100 mg/kg body weight caffeine orally, plasma two hours later, vs water control
[8] = Blood ethanol in rats, caffeine + each of 20 amino acids; conditions: 0.1 g/kg amino acid together with 20 mg/kg caffeine 1 h before ethanol 2 g/kg, blood two hours after ethanol
Description: One hour after the administration of each sample, ethanol (2 g/kg body weight) was orally administered. After further two hours, blood was taken from the aorta abdominalis under anesthesia with pentobarbital (Sigma).

[9] = rat, in vivo; cited from earlier work
[10] = Blood ethanol in rats, sample administered after ethanol; conditions: 10 mg/kg caffeine and/or 100 mg/kg serine orally 1 h after ethanol 2 g/kg, blood five hours after ethanol, vs control
[11] = Dissolution of serine in non-sugar coffee; conditions: 100, 500, 1000, 1500 and 2000 mg serine in 100 ml coffee

Structure (SMILES) | blood ethanol level [1] | blood acetaldehyde level [1] | amount needed to significantly reduce the blood ethanol level [2] [mg/kg body weight] | blood ethanol level [3] | blood ethanol level [4] | blood glucose level: recovery from hypoglycemia at the time of fatigue [5] | mRNA expression level of SDS in liver [6] | blood glucose level [7] | relative blood ethanol level compared to the caffeine-only group (regarded as 1) [8] | acute half lethal dose [9] [g/kg body weight] | relative blood ethanol concentration [10] | dissolution in non-sugar coffee [11]
Cn1c(=O)c2c(ncn2C)n(C)c1=O [caffeine, 3,7-dihydro-1,3,7-trimethyl-1H-purine-2,6-dione, reference compound] | rarely changed | did not significantly change | 300 | significantly decreased 2 hours after ethanol administration; however, a significant effect was not observed in other time point | A slight downward tendency was observed in the caffeine administration group, but it is not significant change | recovered from hypoglycemia | metabolism of serine and tryptophan was enhanced | increasing a blood glucose level | – | – | – | –
N[C@@H](CO)C(=O)O [serine] | rarely changed | did not significantly change | – | slightly decreased compared to the control group; however, this change observed in the all measurement time points had not a significance | – | recovered from hypoglycemia | – | – | blood ethanol reduction effect was observed | 14 | A slight downward tendency was observed in the serine single administration group compared to the control group, but it was not significant change | easily dissolved in non-sugar coffee without any appearance problem such as precipitation and turbidity
N[C@@H](Cc1c[nH]c2ccccc12)C(=O)O [tryptophan] | – | – | – | – | No change was observed | – | – | – | blood ethanol reduction effect was observed | – | – | –
